{"source": "patent US10512635B2", "about": "“Uses of benzimidazole derivative for nocturnal acid breakthrough” (CJ HEALTHCARE CORPORATION, priority 2015, dated 2019)", "test_system": "gastric pH", "assay": "Clinical trial: 24 h gastric pH monitoring after single night-time oral dose", "assay_type": "in vivo, human (healthy male volunteers)", "settings": "for % inhibition of IA / % inhibition of Time pH < 4: post-dose vs baseline; for % inhibition of IA / % inhibition of Time pH < 4 / IA (integrated acidity) / Median pH / Time pH > 4 (%) / Time pH > 6 (%): mean N=12; for IA (integrated acidity) / Median pH / Time pH > 4 (%) / Time pH > 6 (%): post-dose", "experimental": "In order to evaluate the nocturnal acid breakthrough inhibiting effect of the compound of Chemical Formula 1 according to the present disclosure, clinical trials were designed by Randomized, Open-label, Single-dose, Balanced incomplete block crossover. A total of 24 trial subjects were enrolled for 12 sequences, with two trial subjects assigned per a sequence. All the trial subjects have completed the planned clinical trial schedule (FIG. 1 and Table 1).\nTrial drugs were administered between P.M. 08:30 and P.M 10:30 together with 200 mL of water in a state where water intake was restricted 1 hour before the administration of the trial drugs. Investigator has instructed the trial subjects to take the trial drugs, and has observed the oral cavities of the trial subjects whether all the trial drugs were well taken. The trial subjects were restricted not to lie down for 3 hours after the administration of the trial drugs, but were not restricted when they must lie down or be semi-reclined during a clinical test procedure (for example, electrocardiogram examination). The trial subjects were to take a proper posture if any abnormal reaction occurs at any point.\nThe trial subjects were allowed to take a small amount of water (150 mL or less) in order to insert a pH sensor easily. The intake of drinking water and food was prohibited for 4 hours after the insertion of a pH sensor, and, particularly, the intake of water was restricted for 4 hours after the administration of the trial drugs (On the day before the administration (−1 D), for 4 hours after estimated drug administration time). After the trial subjects woke up next day, a small amount of water (about 50 mL) was provided to the trial subjects at 2 hour intervals during 12 to 24 hours after the administration of the trial drugs (On the day before the administration (−1 D), during 12 to 24 hours after estimated drug administration time), and the intake of water was not restricted during meal time. Meanwhile, standard meal was provided in the form of liquid meal or semi-liquid, and dinner was finished at least 3 hours before drug administration time (On the day before the administration (−1 D), estimated drug administration time). After dinner, an empty stomach state was maintained until breakfast next morning.\nSpecifically, for the analysis of […] parameters, the changes of average 15-min median gastric pH over time were monitored. The main […] parameters set forth above were calculated using the data of total 24 persons obtained by the monitoring of gastric pH. The time function of […] parameters was schematically was illustrated to calculate the […] parameters, and these […] parameters were summarized using descriptive statistics (arithmetic mean (mean), standard deviation (SD), coefficient of variation (CV (%)), sample size (N), minimum value (min), maximum value (max), and median value (median)).\nMeanwhile, the monitoring of gastric pH was carried out as fellows. • Period 1: for each examination period, 24 h for −1 D (before administration), 24 h for each of 1 D and 7 D (after administration) • Period 2: 24 h for 1 D (after administration)", "key": {"[1]": {"settings": "Compound I 50 mg (Example 1), 24 hours"}, "[2]": {"settings": "Compound I 50 mg (Example 1), day-time (12-24 hours)"}, "[3]": {"settings": "Compound I 50 mg (Example 1), night-time (0-12 hours)"}, "[4]": {"settings": "Compound I 100 mg (Example 2), 24 hours"}, "[5]": {"settings": "Compound I 100 mg (Example 2), day-time (12-24 hours)"}, "[6]": {"settings": "Compound I 100 mg (Example 2), night-time (0-12 hours)"}, "[7]": {"settings": "Compound I 200 mg (two formulations of Example 2), 24 hours"}, "[8]": {"settings": "Compound I 200 mg (two formulations of Example 2), day-time (12-24 hours)"}, "[9]": {"settings": "Compound I 200 mg (two formulations of Example 2), night-time (0-12 hours)"}, "[10]": {"settings": "dexlansoprazole 60 mg (Comparative Example), 24 hours"}, "[11]": {"settings": "dexlansoprazole 60 mg (Comparative Example), day-time (12-24 hours)"}, "[12]": {"settings": "dexlansoprazole 60 mg (Comparative Example), night-time (0-12 hours)"}}, "note": "Where “and” joins values, the source holds several entries; their conditions need not be identical. Equal values may be shown once."}
{"smiles": "Cc1nc2c(OC3CCOc4cc(F)cc(F)c43)cc(C(=O)N(C)C)cc2[nH]1", "note": "(centres unmarked) [Compound I, 4-(5,7-difluorochroman-4-yloxy)-N,N,2-trimethyl-1H-benzo[d]imidazole-6-carboxamide]", "values": [{"measurement": "% inhibition of IA", "setting": "[1]", "value": 78.18, "unit": "%"}, {"measurement": "% inhibition of Time pH < 4", "setting": "[1]", "value": 51.35, "unit": "%"}, {"measurement": "% inhibition of IA", "setting": "[2]", "value": 62.64, "unit": "%"}, {"measurement": "% inhibition of Time pH < 4", "setting": "[2]", "value": 39.65, "unit": "%"}, {"measurement": "% inhibition of IA", "setting": "[3]", "value": 83.98, "unit": "%"}, {"measurement": "% inhibition of Time pH < 4", "setting": "[3]", "value": 61.41, "unit": "%"}, {"measurement": "IA (integrated acidity)", "setting": "[1]", "value": 355.02, "unit": "mmol·h/L"}, {"measurement": "Median pH", "setting": "[1]", "value": 4.57}, {"measurement": "Time pH > 4 (%)", "setting": "[1]", "value": 58.55, "unit": "%"}, {"measurement": "Time pH > 6 (%)", "setting": "[1]", "value": 25.97, "unit": "%"}, {"measurement": "IA (integrated acidity)", "setting": "[2]", "value": 184.29, "unit": "mmol·h/L"}, {"measurement": "Median pH", "setting": "[2]", "value": 4.08}, {"measurement": "Time pH > 4 (%)", "setting": "[2]", "value": 52.06, "unit": "%"}, {"measurement": "Time pH > 6 (%)", "setting": "[2]", "value": 21.56, "unit": "%"}, {"measurement": "IA (integrated acidity)", "setting": "[3]", "value": 170.73, "unit": "mmol·h/L"}, {"measurement": "Median pH", "setting": "[3]", "value": 4.98}, {"measurement": "Time pH > 4 (%)", "setting": "[3]", "value": 65.11, "unit": "%"}, {"measurement": "Time pH > 6 (%)", "setting": "[3]", "value": 30.41, "unit": "%"}, {"measurement": "% inhibition of IA", "setting": "[4]", "value": 88.78, "unit": "%"}, {"measurement": "% inhibition of Time pH < 4", "setting": "[4]", "value": 66.22, "unit": "%"}, {"measurement": "% inhibition of IA", "setting": "[5]", "value": 90.74, "unit": "%"}, {"measurement": "% inhibition of Time pH < 4", "setting": "[5]", "value": 71.47, "unit": "%"}, {"measurement": "% inhibition of IA", "setting": "[6]", "value": 88.68, "unit": "%"}, {"measurement": "% inhibition of Time pH < 4", "setting": "[6]", "value": 62.53, "unit": "%"}, {"measurement": "IA (integrated acidity)", "setting": "[4]", "value": 229.60, "unit": "mmol·h/L"}, {"measurement": "Median pH", "setting": "[4]", "value": 5.10}, {"measurement": "Time pH > 4 (%)", "setting": "[4]", "value": 70.07, "unit": "%"}, {"measurement": "Time pH > 6 (%)", "setting": "[4]", "value": 31.91, "unit": "%"}, {"measurement": "IA (integrated acidity)", "setting": "[5]", "value": 67.72, "unit": "mmol·h/L"}, {"measurement": "Median pH", "setting": "[5]", "value": 5.10}, {"measurement": "Time pH > 4 (%)", "setting": "[5]", "value": 74.57, "unit": "%"}, {"measurement": "Time pH > 6 (%)", "setting": "[5]", "value": 30.10, "unit": "%"}, {"measurement": "IA (integrated acidity)", "setting": "[6]", "value": 161.88, "unit": "mmol·h/L"}, {"measurement": "Median pH", "setting": "[6]", "value": 5.01}, {"measurement": "Time pH > 4 (%)", "setting": "[6]", "value": 65.61, "unit": "%"}, {"measurement": "Time pH > 6 (%)", "setting": "[6]", "value": 33.85, "unit": "%"}, {"measurement": "% inhibition of IA", "setting": "[7]", "value": 93.45, "unit": "%"}, {"measurement": "% inhibition of Time pH < 4", "setting": "[7]", "value": 78.87, "unit": "%"}, {"measurement": "% inhibition of IA", "setting": "[8]", "value": 97.41, "unit": "%"}, {"measurement": "% inhibition of Time pH < 4", "setting": "[8]", "value": 82.48, "unit": "%"}, {"measurement": "% inhibition of IA", "setting": "[9]", "value": 91.17, "unit": "%"}, {"measurement": "% inhibition of Time pH < 4", "setting": "[9]", "value": 76.00, "unit": "%"}, {"measurement": "IA (integrated acidity)", "setting": "[7]", "value": 141.62, "unit": "mmol·h/L"}, {"measurement": "Median pH", "setting": "[7]", "value": 5.90}, {"measurement": "Time pH > 4 (%)", "setting": "[7]", "value": 81.73, "unit": "%"}, {"measurement": "Time pH > 6 (%)", "setting": "[7]", "value": 48.44, "unit": "%"}, {"measurement": "IA (integrated acidity)", "setting": "[8]", "value": 25.51, "unit": "mmol·h/L"}, {"measurement": "Median pH", "setting": "[8]", "value": 5.62}, {"measurement": "Time pH > 4 (%)", "setting": "[8]", "value": 85.34, "unit": "%"}, {"measurement": "Time pH > 6 (%)", "setting": "[8]", "value": 43.29, "unit": "%"}, {"measurement": "IA (integrated acidity)", "setting": "[9]", "value": 116.11, "unit": "mmol·h/L"}, {"measurement": "Median pH", "setting": "[9]", "value": 6.00}, {"measurement": "Time pH > 4 (%)", "setting": "[9]", "value": 78.15, "unit": "%"}, {"measurement": "Time pH > 6 (%)", "setting": "[9]", "value": 53.63, "unit": "%"}, {"measurement": "Time pH > 4 (%)", "setting": "Compound I 200 mg (two formulations of Example 2), night-time (0-12 hours), listed as compound of Chemical Formula 1", "value": 73.15, "unit": "%"}, {"measurement": "time after administration until average gastric pH reached 4 or higher", "setting": "all dose groups (50 mg, 100 mg, and 200 mg), administered at night-time", "value": "≤ 2", "unit": "hours"}]}
{"smiles": "Cc1c(OCC(F)(F)F)ccnc1C[S@@+]([O-])c1nc2ccccc2[nH]1", "note": "[dexlansoprazole, reference compound]", "values": [{"measurement": "% inhibition of IA", "setting": "[10]", "value": 64.66, "unit": "%"}, {"measurement": "% inhibition of Time pH < 4", "setting": "[10]", "value": 53.96, "unit": "%"}, {"measurement": "% inhibition of IA", "setting": "[11]", "value": 97.01, "unit": "%"}, {"measurement": "% inhibition of Time pH < 4", "setting": "[11]", "value": 79.80, "unit": "%"}, {"measurement": "% inhibition of IA", "setting": "[12]", "value": 44.06, "unit": "%"}, {"measurement": "% inhibition of Time pH < 4", "setting": "[12]", "value": 29.98, "unit": "%"}, {"measurement": "IA (integrated acidity)", "setting": "[10]", "value": 719.54, "unit": "mmol·h/L"}, {"measurement": "Median pH", "setting": "[10]", "value": 4.98}, {"measurement": "Time pH > 4 (%)", "setting": "[10]", "value": 60.55, "unit": "%"}, {"measurement": "Time pH > 6 (%)", "setting": "[10]", "value": 25.85, "unit": "%"}, {"measurement": "IA (integrated acidity)", "setting": "[11]", "value": 22.89, "unit": "mmol·h/L"}, {"measurement": "Median pH", "setting": "[11]", "value": 5.56}, {"measurement": "Time pH > 4 (%)", "setting": "[11]", "value": "83.05% and 83.06%"}, {"measurement": "Time pH > 6 (%)", "setting": "[11]", "value": 33.71, "unit": "%"}, {"measurement": "IA (integrated acidity)", "setting": "[12]", "value": 696.55, "unit": "mmol·h/L"}, {"measurement": "Median pH", "setting": "[12]", "value": 2.55}, {"measurement": "Time pH > 4 (%)", "setting": "[12]", "value": 37.78, "unit": "%"}, {"measurement": "Time pH > 6 (%)", "setting": "[12]", "value": 17.76, "unit": "%"}]}
